{"source": "paper PMC7508583", "about": "“Discovery and Preclinical Development of Antigiardiasis Fumagillol Derivatives” (Antimicrobial Agents and Chemotherapy, 2020)", "key": {"[1]": {"test_system": "G. lamblia GS trophozoites", "assay": "Mouse giardiasis model efficacy", "type": "in vivo, Giardia lamblia", "details": "for ED50: Giardia duodenalis, 96 h; for EC50, 4-day single-daily-dose treatment regimen: Fig. 5", "procedure": "The C57BL/6J mice were infected with G. lamblia GS trophozoites, treated for 4 days, and euthanized as described in Materials and Methods.\nCompound efficacy was evaluated in the mature mouse giardiasis model reported previously ([18], [66]). Fifteen 4-week-old C57BL/6J female mice (The Jackson Laboratory, Bar Harbor, ME) were infected with G. lamblia GS or H7 trophozoites. For each experiment, the trophozoites (500,000 trophozoites suspended in 200 μl of TYI-S-33 medium) were administered by oral gavage to 15 mice. […] The remaining 5 untreated mice served as controls. The compounds were administered by oral gavage in 200 μl of TYI-S-33 medium supplemented with 0.5% DMSO. All mice were euthanized on day 7. The University of Maryland College Park IACUC approved the animal studies.\nTwo inches of the upper small intestine were dissected and washed with 2 ml of medium supplemented with antibiotics to produce axenized cultures (1 mg/ml each piperacillin and moxalactam and 10 μg/ml each vancomycin and polymyxin B, which is a modified mixture compared with that used earlier). The harvested small intestines were opened longitudinally and minced in a petri dish containing 10 ml of ice-chilled medium. The plates were placed on ice for 30 min to allow the trophozoites to detach from the intestine, and the entire content of each petri dish was transferred into a 15-ml glass tube, the volume was adjusted to 14 ml by adding the antibiotic-containing medium, and the tube was vigorously vortexed to separate the trophozoites from the intestine debris. For the following 2 h, the tubes were kept at 37°C to allow trophozoite attachment to the wall of the glass tube, after which the medium containing the intestine debris was decanted and replaced by fresh medium. The tubes were kept at 37°C for another 15 min, followed by a second medium replacement. The tubes were kept at 37°C for 6 days for proliferation. Trophozoite growth was determined once daily by monitoring the ATP content using the ATPlite reagent.\nThe proliferation measurements were used to calculate growth curves and the trophozoite load of drug-treated mice compared with that of untreated mice. The trophozoite load was quantified by calculating the initial population from the growth curves and fitting the luminescence or the trophozoite counting data to the Malthusian model of exponential growth, Nt = N0e^rt, where Nt is the signal of the population at time t, r is the growth rate, and N0 is the signal of the initial population at the end of treatment. The percentage of the load relative to the N0 for untreated mouse samples was determined. […] The curve was fit with a variable slope using GraphPad Prism (version 8.2.1) software (GraphPad Software Inc., La Jolla, CA)."}, "[2]": {"assay": "Plasma pharmacokinetics in mice", "type": "in vivo, C57BL/6 female mice", "procedure": "The mean plasma concentration-time profiles for intravenous (i.v.) and per os (p.o.) administration in C57BL/6 female mice are shown in Fig. 6A. […] In contrast, at the earliest time point (15 min) following oral administration of a 6.6-mg/kg bolus, the plasma concentration reached a maximum of ∼92 ng/ml and then decreased gradually and remained detectable for 8 h.\nPlasma intravenous (i.v.) and per os (p.o.) pharmacokinetic studies were performed in C57BL/6 female mice, using two groups of three mice each. […] The second group of mice received a 6.6-mg/kg dose orally; this dose matched the therapeutic dose that cured giardiasis with no remaining proliferating trophozoites. Blood samples were withdrawn at 5, 15, and 30 min and 1, 2, 4, 8, and 24 h after administration for the i.v. treated mouse group and at the same time intervals but beginning at 15 min for the p.o. treated mouse group. The samples were extracted with 60% water-diluted acetonitrile and were frozen at −20°C until analysis.\nBlank and test compound-containing samples were thawed, vortexed to ensure complete mixing of the contents, and centrifuged at 4,000 rpm at 20°C for 10 min. The supernatants were transferred into autoinjector vials. The vials were loaded, and 30-μl sample volumes were injected onto an API 4000 LC-MS/MS system. The Agilent XDB C18 column was used for the liquid chromatographic step at a flow rate of 0.6 ml/min. The mass spectrometer was operated in the electrospray ionization-positive mode. Curcumin served as an internal standard. The chromatograms were evaluated using Analyst (version 1.6.3) software."}, "[3]": {"assay": "Single-dose acute toxicity (MTD) and histopathology", "details": "in vivo", "procedure": "The tissues of three surviving mice were analyzed along with the tissues of three animals treated with the vehicle alone. […] Based on these findings, the maximum tolerated dose (MTD) value was determined to be 1,500 mg/kg.\nThe maximum tolerated dose (MTD) determination was performed using 8- to 10-week-old C57BL/6 female mice in five groups of 6 animals each. The mice were acclimated to the study room for a week. Animals were randomized by body weight prior to being assigned to dosage groups at the outset of the study. […] Following an up-down dosing strategy, the clinical signs and body weights of the animals in a study group were evaluated daily for 5 days before escalating or reducing the dose administered to the next group, as appropriate. The clinical observations included posture, vocalization, ease of handling, lacrimation, chromodacryorrhea, salivation, coat appearance, rearing frequency, transfer arousal, piloerection, motor movements, tail pinch, and diarrhea.\nThe histopathology examination included 3 mice that survived treatment with the 2,000-mg/kg dose and 3 mice that received the vehicle alone. Brain, heart, lung, spleen, and liver tissues were examined. Formalin-fixed tissues were embedded in paraffin to produce 4-μm-thick sections. The paraffin wax was removed, and the tissues were stained with Gill’s hematoxylin for 5 to 10 min. The samples were rinsed in tap water, followed by ammonia water, and stained with eosin Y for 5 min. The hematoxylin-eosin-stained tissues were dehydrated and mounted for light microscopic examination."}, "[4]": {"test_system": "G. lamblia GS trophozoites", "set-up": "method as in PMID 21078930, PMID 25267663", "details": "read-out: IC50 against assemblage B GS strain; cited from earlier work"}, "[5]": {"test_system": "G. lamblia GS trophozoites", "set-up": "method as in PMID 25267663", "details": "proliferation assay; cited from earlier work"}, "[6]": {"set-up": "method as in earlier work", "details": "degraded from 98% purity; Sanofi; cited from earlier work"}, "[7]": {"test_system": "CHO-K1 (CHO) cells", "details": "cited from earlier work"}, "[8]": {"details": "13.7 mg/kg, mouse giardiasis model"}}, "note": "Like-named read-outs stand apart in the source and are kept apart here."}
{"smiles": "CO[C@@H]1[C@H](OC(=O)Nc2ccc(C(=O)O)cc2)CC[C@]2(CO2)[C@H]1[C@@]1(C)O[C@@H]1CC=C(C)C", "note": "[Compound 9, 4-(((((3R,4S,5S,6R)-5-methoxy-4-((2R,3R)-2-methyl-3-(3-methylbut-2-en-1-yl)oxiran-2-yl)-1-oxaspiro[2.5]octan-6-yl)oxy)carbonyl)amino)benzoic acid]", "values": [{"measurement": "fully curative dose (100% effective dose, ED100)", "setting": "[1]; C57BL/6J mice infected with G. lamblia GS, oral, once daily for 4 days", "result": 6.6, "unit": "mg/kg"}, {"measurement": "ED50", "setting": "[1]; C57BL/6J mice infected with G. lamblia GS, oral, once daily for 4 days, read-out: ED50", "result": 0.064, "unit": "mg/kg"}, {"measurement": "EC50, 4-day single-daily-dose treatment regimen", "setting": "[1]; mouse giardiasis model", "result": 0.064, "unit": "mg/kg/day"}, {"measurement": "time plasma concentration remained detectable", "setting": "[2]; 6.6 mg/kg oral bolus", "result": 8, "unit": "h"}, {"measurement": "maximum plasma concentration", "setting": "[2]; 6.6 mg/kg oral bolus, C57BL/6 female mice", "result": "~92", "unit": "ng/mL"}, {"measurement": "time point of maximum plasma concentration", "setting": "[2]; 6.6 mg/kg oral bolus, earliest time point", "result": 15, "unit": "min"}, {"measurement": "half-life", "setting": "[2]; mouse, iv, 2 mg/kg i.v., plasma, C57BL/6 female mice, read-out: calculated half-life", "result": 7.2, "unit": "min"}, {"measurement": "concentration at 5 min", "setting": "[2]; mouse, plasma, intravenous, 2 mg/kg i.v. bolus, C57BL/6 female mice, read-out: plasma concentration at the 5-min time point", "result": "~136", "unit": "ng/mL"}, {"measurement": "concentration at 1 h", "setting": "[2]; mouse, plasma, intravenous, 2 mg/kg i.v. bolus, C57BL/6 female mice, read-out: plasma concentration by 1 h after dosing (below limit of quantification)", "result": "< 5", "unit": "ng/mL"}, {"measurement": "LD50 at 5 days", "setting": "[3]; female, C57BL/6, mouse, po", "result": "> 2000", "unit": "mg/kg"}, {"measurement": "MTD at 5 days", "setting": "[3]; female, C57BL/6, mouse, po", "result": 1500, "unit": "mg/kg"}, {"measurement": "histopathology of liver, heart, brain, lung, spleen", "setting": "[3]; mouse", "result": "normal tissue with no significant changes compared with the control tissues"}, {"measurement": "mortality", "setting": "[3]; mouse", "result": "two mice died unexpectedly"}, {"measurement": "reduced body weight on day 3", "setting": "[3]; mouse", "result": "~15", "unit": "%"}, {"measurement": "weight change and clinical signs", "setting": "[3]; mouse", "result": "no weight change and no negative clinical signs"}]}
{"smiles": "CO[C@@H]1[C@H](OC(=O)/C=C/C=C/C=C/C=C/C(=O)O)CC[C@]2(CO2)[C@H]1[C@@]1(C)O[C@@H]1CC=C(C)C", "note": "[Fumagillin, reference compound]", "values": [{"measurement": "cure of mice", "setting": "[1]; [8]", "result": "none of the mice were cured"}, {"measurement": "trophozoite load remaining compared with untreated control mice", "setting": "[1]; [8]", "result": 7, "unit": "%"}, {"measurement": "ED50", "setting": "[1]; po", "result": 0.247, "unit": "mg/kg"}, {"measurement": "EC50, 4-day single-daily-dose treatment regimen", "setting": "[1]; mouse giardiasis model", "result": 0.247, "unit": "mg/kg/day"}, {"measurement": "IC50", "setting": "[4]", "result": 0.002, "unit": "µM"}, {"measurement": "MLC, GS strain", "setting": "[5]", "result": 0.26, "unit": "µM"}, {"measurement": "purity after storage at 40°C for 2 weeks at ambient humidity", "setting": "[6]", "result": 85, "unit": "%"}, {"measurement": "IC50", "setting": "[7]; read-out: IC50, cytotoxicity toward mammalian CHO cells", "result": "> 100", "unit": "µM"}]}
{"smiles": "Cc1ncc([N+](=O)[O-])n1CCO", "note": "[Metronidazole, reference compound]", "values": [{"measurement": "IC50", "setting": "[7]; read-out: IC50 CHO, cytotoxicity", "result": 17.3, "unit": "µM"}]}
